Legend:
Candida albicans B 3153A = test: disc diffusion, zone of inhibition on seeded agar plates; format: cell-based; details: Table IV-a, 16-18 h, 28-37°C
Method: (§1) The antifungal activity of aculeacin A and the compositions of aculeacin A and fatty acids was measured by disc diffusion. Potentiation of antifungal activity was examined by three different methods employing: (1) a single concentration of aculeacin A and a single concentration of known fatty acids; '(2) various concentrations of aculeacin A with a single concentration of individual fatty acids; and (3) various concentrations of fatty acids with a single concentration of aculeacin A. The antifungal activities of aculeacin A and the fatty acids were separately checked as controls.
(§2) The antifungal effects of compositions containing a single amount of aculeacin A while varying the amounts. of oleic acid as the sodium salt were determined by utilizing seeded plates of Candida albicans strains B 311, BC 759 and B 3153A and measuring the zone of inhibition after 16-18 hours at 28-37°C. This test was also performed with linoleic acid and linolenic acid.
(§3) The seeded plates of Candida albicans strains B 311, BC 759, and B 3153A were prepared by inoculating 50 ml of trypticase soy broth (BBL) with one ml of the preserved frozen culture and incubating the inoculum at 37°C for 7 hours on a rotary shaker. Two milliliters of this culture were used to inoculate one liter of Sabouarud dextrose agar (Difco) at 50°C and 15 milliliters of the resultant medium poured into 150 mm petri-dishes.

Candida albicans BC 759 = test: as above; format: cell-based; details: Table IV-a, 16-18 h, 28-37°C
Method: as §1, §2, §3

C. albicans = test: topical treatment of C. albicans skin infections of mice; format: in vivo; details: female CF-1 mice, shaved back skin infected with clinical isolates; topical treatment for 5 days; aculeacin A at its MIC for each isolate; compared with aculeacin A itself, Lotrimin cream and control
Method: Clinical isolates of C. albicans were grown in Sabouarud dextrose agar and subcultured into mouse serum and incubated at 35 C. Female mice (CF-1, 4 to 6 weeks old) were shaved on the back (2cm ^2 area).
The shaved area was cleaned with 70%'alcohol and scrubbed with a wire brush. This area was then painted with the C. albicans in mouse serum as noted above (10^5-10^6 CFu/ml.) and after drying this area was covered with sterile gauze and the infection was allowed to develop over two days. After the development of the infection, the mice were treated with aculeacin A/oleic acid composition, aculeacin A and Lotrimin^R (Clotrimazole-Schering) for 5 days. The minimum inhibitory concentration (MIC) for aculeacin A for each clinical isolate of C. albicans was determined and that amount was employed in each experiment. Commercially available Lotrimin^R cream was utilized in each experiment. […] Note that bacterial contamination was ruled out by microscopic examination. • [formula] where 4 - the most severe infection - zone of inoculation highly erythrematous with culture mainly consisting of C. albicans. • 3 - severe infection with some healing • 2 - less severe infection • 1 - very little infection • 0 - no infection.

Candida albicans B 311 = test: disc diffusion, zone of inhibition on seeded agar plates; format: cell-based; details: 16-18 h; for Zone Size / Zone Size B 311: 28-37°C; for Zone Size Sabouarud Agar / Zone Size YNB agar: Table II, 37°C; for Zone Size YNB agar: lysine; for Zone Size B 311: Table IV-a
Method: The antifungal activity of aculeacin A and the compositions of aculeacin A and fatty acids was measured by disc diffusion.
The effects of a number of fatty acids on the antifungal activity of aculeacin A were determined by utilizing seeded plates of Candida albicans B 311 in yeast nitrogen base (YNB) agar (Difco) with glucose as the carbon source. A composition containing one unit by weight of aculeacin A and 5 units of fatty acid or the sodium salt thereof was spotted on the seeded plates and the size of the zone of inhibition after 16-18 hours incubation at 28-37 °C was measured.
Additional fatty acids were tested to determine , if they increased the intrinsic activity of aculeacin A against C. albicans B 311 utilizing seeded plates of YNB agar (Difco) with lysine as the carbon source and seeded plates of Sabouarud dextrose agar (Difco). Compositions containg one µg of aculeacin A and various amounts of the fatty acid was spotted on the seeded plates and the size of the zone of inhibition after 16-18 hours incubation at 37 °C was measured.
The antifungal effects of compositions containing a single amount of oleic acid as the sodium salt while varying the amounts of aculeacin A were determined by utilizing seeded plates of Candida albicans B 311 in Sabouarud dextrose agar and measuring the zone of inhibition after 16-18 hours incubation at 28-37°C.
as §2, §3

[1] = aculeacin A 0.40 µg + oleic acid (as sodium salt) 5 µg
[2] = aculeacin A 0.40 µg + oleic acid (as sodium salt) 10 µg
[3] = aculeacin A 0.40 µg + oleic acid (as sodium salt) 20 µg
[4] = aculeacin A 0.40 µg + oleic acid (as sodium salt) 40 µg
[5] = aculeacin A 0.40 µg + oleic acid (as sodium salt) 78 µg
[6] = aculeacin A 0.40 µg + oleic acid (as sodium salt) 156 µg
[7] = aculeacin A 0.40 µg + oleic acid (as sodium salt) 312 µg
[8] = aculeacin A 0.40 µg + oleic acid (as sodium salt) 625 µg
[9] = aculeacin A 0.40 µg + oleic acid (as sodium salt) 1250 µg

Q: With CCCCCCCC/C=C\CCCCCCCC(=O)O [Oleic Acid] as the molecule, how does the “Zone Size B 3153-A” value (Candida albicans B 3153A; [1]) read?
A: 13 mm

Q: And the “Zone Size B 3153-A” value (Candida albicans B 3153A; [2])?
A: 15 mm

Q: And the “Zone Size B 3153-A” value (Candida albicans B 3153A; [3])?
A: 18 mm

Q: And the “Zone Size B 3153-A” value (Candida albicans B 3153A; [4])?
A: 17 mm

Q: And the “Zone Size B 3153-A” value (Candida albicans B 3153A; [5])?
A: 18 mm

Q: And the “Zone Size B 3153-A” value (Candida albicans B 3153A; [6])?
A: 25 mm

Q: And the “Zone Size B 3153-A” value (Candida albicans B 3153A; [7])?
A: 25 mm

Q: And the “Zone Size B 3153-A” value (Candida albicans B 3153A; [8])?
A: 28 mm

Q: And the “Zone Size B 3153-A” value (Candida albicans B 3153A; [9])?
A: 29 mm

Q: What about the “Zone Size BC 759” value (Candida albicans BC 759; [1]) of the same molecule?
A: 13 mm

Q: And the “Zone Size BC 759” value (Candida albicans BC 759; [2])?
A: 15 mm

Q: What about the “Zone Size BC 759” value (Candida albicans BC 759; [3]) of the same molecule?
A: 18 mm

Q: And the “Zone Size BC 759” value (Candida albicans BC 759; [4])?
A: 18 mm

Q: And the “Zone Size BC 759” value (Candida albicans BC 759; [5])?
A: 20 mm

Q: What about the “Zone Size BC 759” value (Candida albicans BC 759; [6]) of the same molecule?
A: 24 mm

Q: And the “Zone Size BC 759” value (Candida albicans BC 759; [7])?
A: 28 mm

Q: What about the “Zone Size BC 759” value (Candida albicans BC 759; [8]) of the same molecule?
A: 29 mm

Q: What about the “Zone Size BC 759” value (Candida albicans BC 759; [9]) of the same molecule?
A: 32 mm

Q: And the “reduction in the infection” value (C. albicans)?
A: did not inhibit the infection

Q: And the “Zone Size” value (Candida albicans B 311; Table I, YNB agar, glucose as carbon source, composition of 1 unit by weight aculeacin A + 5 units fatty acid)?
A: 32 mm

Q: And the “Zone Size Sabouarud Agar” value (Candida albicans B 311; Sabouarud dextrose agar, aculeacin A 0 µg, fatty acid 250 µg alone)?
A: 0 mm

Q: What about the “Zone Size Sabouarud Agar” value (Candida albicans B 311; Sabouarud dextrose agar, aculeacin A 0 µg, fatty acid 500 µg alone) of the same molecule?
A: 0 mm

Q: And the “Zone Size Sabouarud Agar” value (Candida albicans B 311; Sabouarud dextrose agar, aculeacin A 0 µg, fatty acid 1000 µg alone)?
A: 0 mm

Q: And the “Zone Size Sabouarud Agar” value (Candida albicans B 311; Sabouarud dextrose agar, composition of aculeacin A 1 µg + fatty acid 250 µg)?
A: 28 mm

Q: What about the “Zone Size Sabouarud Agar” value (Candida albicans B 311; Sabouarud dextrose agar, composition of aculeacin A 1 µg + fatty acid 500 µg) of the same molecule?
A: 26 mm

Q: What about the “Zone Size Sabouarud Agar” value (Candida albicans B 311; Sabouarud dextrose agar, composition of aculeacin A 1 µg + fatty acid 1000 µg) of the same molecule?
A: 26 mm

Q: And the “Zone Size YNB agar” value (Candida albicans B 311; YNB agar, aculeacin A 0 µg, fatty acid 250 µg alone)?
A: 0 mm

Q: And the “Zone Size YNB agar” value (Candida albicans B 311; YNB agar, aculeacin A 0 µg, fatty acid 500 µg alone)?
A: 0 mm

Q: What about the “Zone Size YNB agar” value (Candida albicans B 311; YNB agar, aculeacin A 0 µg, fatty acid 1000 µg alone) of the same molecule?
A: 0 mm

Q: And the “Zone Size YNB agar” value (Candida albicans B 311; YNB agar, composition of aculeacin A 1 µg + fatty acid 250 µg)?
A: 35 mm

Q: What about the “Zone Size YNB agar” value (Candida albicans B 311; YNB agar, composition of aculeacin A 1 µg + fatty acid 500 µg) of the same molecule?
A: 35 mm

Q: And the “Zone Size YNB agar” value (Candida albicans B 311; YNB agar, composition of aculeacin A 1 µg + fatty acid 1000 µg)?
A: 35 mm

Q: What about the “Zone Size” value (Candida albicans B 311; Table III, Sabouarud dextrose agar, aculeacin A 0.000 µg, oleic acid (as sodium salt) 12.5 µg alone) of the same molecule?
A: 0 mm

Q: And the “Zone Size” value (Candida albicans B 311; Table III, Sabouarud dextrose agar, aculeacin A 0.020 µg + oleic acid (as sodium salt) 12.5 µg)?
A: trace

Q: What about the “Zone Size” value (Candida albicans B 311; Table III, Sabouarud dextrose agar, aculeacin A 0.039 µg + oleic acid (as sodium salt) 12.5 µg) of the same molecule?
A: 28 mm

Q: And the “Zone Size” value (Candida albicans B 311; Table III, Sabouarud dextrose agar, aculeacin A 0.078 µg + oleic acid (as sodium salt) 12.5 µg)?
A: 29 mm

Q: And the “Zone Size” value (Candida albicans B 311; Table III, Sabouarud dextrose agar, aculeacin A 0.156 µg + oleic acid (as sodium salt) 12.5 µg)?
A: 32 mm

Q: And the “Zone Size” value (Candida albicans B 311; Table III, Sabouarud dextrose agar, aculeacin A 0.312 µg + oleic acid (as sodium salt) 12.5 µg)?
A: 35 mm

Q: What about the “Zone Size” value (Candida albicans B 311; Table III, Sabouarud dextrose agar, aculeacin A 0.625 µg + oleic acid (as sodium salt) 12.5 µg) of the same molecule?
A: 35 mm

Q: What about the “Zone Size” value (Candida albicans B 311; Table III, Sabouarud dextrose agar, aculeacin A 1.25 µg + oleic acid (as sodium salt) 12.5 µg) of the same molecule?
A: 37 mm

Q: And the “Zone Size B 311” value (Candida albicans B 311; [1])?
A: 13 mm

Q: And the “Zone Size B 311” value (Candida albicans B 311; [2])?
A: 14 mm

Q: And the “Zone Size B 311” value (Candida albicans B 311; [3])?
A: 15 mm

Q: What about the “Zone Size B 311” value (Candida albicans B 311; [4]) of the same molecule?
A: 17 mm

Q: What about the “Zone Size B 311” value (Candida albicans B 311; [5]) of the same molecule?
A: 20 mm

Q: What about the “Zone Size B 311” value (Candida albicans B 311; [6]) of the same molecule?
A: 26 mm

Q: And the “Zone Size B 311” value (Candida albicans B 311; [7])?
A: 30 mm

Q: What about the “Zone Size B 311” value (Candida albicans B 311; [8]) of the same molecule?
A: 32 mm

Q: And the “Zone Size B 311” value (Candida albicans B 311; [9])?
A: 35 mm
